The values that follow are results of earlier work, collected in patent US20070286864A1, “Combined treatment with an EGFR kinase inhibitor and an agent that sensitizes tumor cells to the effects of EGFR kinase inhibitors” (priority 2006, published 2007).

For data set [1], the system named is H292 cells. Conditions: erlotinib single agent (10 μM), sensitive = maximum growth inhibition greater than 50%.
Data set [2] deals with H460 cells. To be noted: erlotinib single agent (10 μM), relatively insensitive = maximum growth inhibition less than 50%.
The subject of data set [3] is H358 cells. Conditions: erlotinib single agent (10 μM), sensitive = maximum growth inhibition greater than 50%.
For data set [4], the system named is H1703 cells. Conditions: erlotinib single agent (10 μM), relatively insensitive = maximum growth inhibition less than 50%.
Data set [5] has as its system Calu6 cells. To be noted: erlotinib single agent (10 μM), relatively insensitive = maximum growth inhibition less than 50%.

On to `C#Cc1cccc(Nc2ncnc3cc(OCCOC)c(OCCOC)cc23)c1` [erlotinib, [6,7-bis(2-methoxyethoxy)-4-quinazolin-4-yl]-(3-ethynylphenyl)amine], for which the “sensitivity of cell line to erlotinib” value in data set [1] is listed as “sensitive”; in data set [2], “relatively insensitive”; in data set [3], “sensitive”; in data set [4], “relatively insensitive”; in data set [5], “relatively insensitive”.
